# Measured values from PubChem BioAssay (NCI).
#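 Briefly, cells in 96-well plates were exposed to five compound concentrations for 48 h, and endpoints were estimated by linear interpolation. Definition used: TGI = concentration required for complete inhibition of growth.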
# Columns and labels:
# Assay in all cases: NCI tumour cell line growth inhibition, 48 h
# [1] = tested on: 786-0 renal
# [2] = tested on: SNB-78 CNS
# [3] = tested on: LOX IMVI melanoma
# [4] = tested on: SF-539 CNS
# [5] = tested on: CAKI-1 renal
# [6] = tested on: HCT-15 colon
# [7] = tested on: HOP-92 NSCLC
# [8] = tested on: HCC-2998 colon
# [9] = tested on: SK-MEL-5 melanoma
# [10] = tested on: A498 renal
# [11] = tested on: UACC-257 melanoma
# [12] = tested on: HT29 colon
# [13] = tested on: CCRF-CEM leukemia
# [14] = tested on: K-562 leukemia
# [15] = tested on: TK-10 renal
# [16] = tested on: NCI-H23 lung
# [17] = tested on: DMS 114 small cell lung
# [18] = tested on: COLO 205 colon
# [19] = tested on: SK-OV-3 ovarian
# [20] = tested on: HOP-62 NSCLC
# [21] = tested on: ACHN renal
# [22] = tested on: SNB-19 CNS
# [23] = tested on: OVCAR-5 ovarian
# [24] = tested on: SF-268 CNS
# [25] = tested on: RXF 393 renal
# [26] = tested on: KM20L2 colon
# [27] = tested on: DLD-1 colon
# [28] = tested on: UACC-62 melanoma
# [29] = tested on: HL-60(TB) leukemia
# [30] = tested on: M19-MEL melanoma
# [31] = tested on: HCT-116 colon
# [32] = tested on: RPMI-8226 leukemia
# [33] = tested on: NCI-H522 lung
# [34] = tested on: OVCAR-3 ovarian
# [35] = tested on: LXFL 529 NSCLC
# [36] = tested on: SNB-75 CNS
# [37] = tested on: MALME-3M melanoma
# [38] = tested on: SK-MEL-2 melanoma
# [39] = tested on: OVCAR-8 ovarian
# [40] = tested on: UO-31 renal
# [41] = tested on: SK-MEL-28 melanoma
# [42] = tested on: M14 melanoma
# [43] = tested on: NCI-H460 lung
# [44] = tested on: IGROV1 ovarian
# [45] = tested on: OVCAR-4 ovarian
# [46] = tested on: EKVX NSCLC
# [47] = tested on: MOLT-4 leukemia
# [48] = tested on: A549 NSCLC
# [49] = tested on: SW-620 colon
# [50] = tested on: KM12 colon
# [51] = tested on: DMS 273 small cell lung
# [52] = tested on: SN12C renal
# [53] = tested on: U251 CNS
# [54] = tested on: NCI-H226 lung
# [55] = tested on: SF-295 CNS
# [56] = tested on: HOP-18 NSCLC
# [57] = tested on: XF 498 CNS
smiles,measurement,setting,value
COc1c2c(c(OC)c3c(=O)cc(C/C(=N/NC(=O)C[n+]4ccccc4)C(=O)Nc4cc(C)ccc4C)oc13)OCO2,TGI,[1],> 100 µM
same,TGI,[2],> 100 µM
same,TGI,[3],> 100 µM
same,TGI,[4],> 100 µM
same,TGI,[5],> 100 µM
same,TGI,[6],> 100 µM
same,TGI,[7],> 100 µM
same,TGI,[8],> 100 µM
same,TGI,[9],> 100 µM
same,TGI,[10],> 100 µM
same,TGI,[11],> 100 µM
same,TGI,[12],> 100 µM
same,TGI,[13],> 100 µM
same,TGI,[14],> 100 µM
same,TGI,[15],> 100 µM
same,TGI,[16],> 100 µM
same,TGI,[17],> 100 µM
same,TGI,[18],> 100 µM
same,TGI,[19],> 100 µM
same,TGI,[20],> 100 µM
same,TGI,[21],> 100 µM
same,TGI,[22],> 100 µM
same,TGI,[23],> 100 µM
same,TGI,[24],> 100 µM
same,TGI,[25],> 100 µM
same,TGI,[26],> 100 µM
same,TGI,[27],> 100 µM
same,TGI,[28],> 100 µM
same,TGI,[29],> 100 µM
same,TGI,[30],> 100 µM
same,TGI,[31],> 100 µM
same,TGI,[32],> 100 µM
same,TGI,[33],> 100 µM
same,TGI,[34],> 100 µM
same,TGI,[35],> 100 µM
same,TGI,[36],> 100 µM
same,TGI,[37],> 100 µM
same,TGI,[38],> 100 µM
same,TGI,[39],> 100 µM
same,TGI,[40],> 100 µM
same,TGI,[41],> 100 µM
same,TGI,[42],> 100 µM
same,TGI,[43],> 100 µM
same,TGI,[44],> 100 µM
same,TGI,[45],> 100 µM
same,TGI,[46],> 100 µM
same,TGI,[47],> 100 µM
same,TGI,[48],> 100 µM
same,TGI,[49],> 100 µM
same,TGI,[50],> 100 µM
same,TGI,[51],> 100 µM
same,TGI,[52],> 100 µM
same,TGI,[53],> 100 µM
COC1C(=[N+]=[N-])C(=O)NC(=O)N1C1OC(COC(c2ccccc2)(c2ccccc2)c2ccccc2)C(O)C1O (stereo not given),TGI,[2],45.6 µM
same,TGI,[3],30.1 µM
same,TGI,[4],35.6 µM
same,TGI,[5],56.1 µM
same,TGI,[6],36.8 µM
same,TGI,[8],32.8 µM
same,TGI,[9],30 µM
same,TGI,[10],35.4 µM
same,TGI,[12],35.3 µM
same,TGI,[13],41.6 µM
same,TGI,[14],49.4 µM
same,TGI,[54],32.1 µM
same,TGI,[16],34.8 µM
same,TGI,[18],38 µM
same,TGI,[19],49.6 µM
same,TGI,[20],41.1 µM
same,TGI,[21],38.3 µM
same,TGI,[22],34 µM
same,TGI,[23],31.7 µM
same,TGI,[24],35.7 µM
same,TGI,[26],31.1 µM
same,TGI,[27],37.3 µM
same,TGI,[28],30.5 µM
same,TGI,[29],46.7 µM
same,TGI,[30],39.5 µM
same,TGI,[31],34.9 µM
same,TGI,[32],61.8 µM
same,TGI,[55],37.4 µM
same,TGI,[33],31 µM
same,TGI,[34],32.9 µM
same,TGI,[35],32.1 µM
same,TGI,[36],29.5 µM
same,TGI,[37],33.8 µM
same,TGI,[38],38.4 µM
same,TGI,[39],36.9 µM
same,TGI,[40],32.2 µM
same,TGI,[41],31.2 µM
same,TGI,[42],34.6 µM
same,TGI,[43],60.6 µM
same,TGI,[44],47.5 µM
same,TGI,[45],27.8 µM
same,TGI,[46],35.9 µM
same,TGI,[47],49.7 µM
same,TGI,[48],31.9 µM
same,TGI,[49],35.8 µM
same,TGI,[50],30.5 µM
same,TGI,[56],37.5 µM
same,TGI,[52],32.7 µM
same,TGI,[53],35.5 µM
CC(C)(C)C(=O)Nc1ccccc1Br,TGI,[1],> 100 µM
same,TGI,[3],> 100 µM
same,TGI,[57],> 100 µM
same,TGI,[5],> 100 µM
same,TGI,[6],> 100 µM
same,TGI,[7],> 100 µM
same,TGI,[8],> 100 µM
same,TGI,[9],> 100 µM
same,TGI,[11],> 100 µM
same,TGI,[12],> 100 µM
same,TGI,[13],> 100 µM
same,TGI,[14],> 100 µM
same,TGI,[15],> 100 µM
same,TGI,[54],> 100 µM
same,TGI,[17],> 100 µM
same,TGI,[18],> 100 µM
same,TGI,[19],> 100 µM
same,TGI,[20],> 100 µM
same,TGI,[21],> 100 µM
same,TGI,[22],> 100 µM
same,TGI,[23],> 100 µM
same,TGI,[25],> 100 µM
same,TGI,[26],> 100 µM
same,TGI,[27],> 100 µM
same,TGI,[28],> 100 µM
same,TGI,[29],> 100 µM
same,TGI,[30],> 100 µM
same,TGI,[31],> 100 µM
same,TGI,[32],> 100 µM
same,TGI,[55],> 100 µM
same,TGI,[34],> 100 µM
same,TGI,[35],> 100 µM
same,TGI,[36],> 100 µM
same,TGI,[37],> 100 µM
same,TGI,[38],> 100 µM
same,TGI,[39],> 100 µM
same,TGI,[40],> 100 µM
same,TGI,[41],> 100 µM
same,TGI,[42],> 100 µM
same,TGI,[43],> 100 µM
same,TGI,[44],> 100 µM
same,TGI,[45],> 100 µM
same,TGI,[46],> 100 µM
same,TGI,[47],> 100 µM
same,TGI,[48],> 100 µM
same,TGI,[49],> 100 µM
same,TGI,[50],> 100 µM
same,TGI,[51],> 100 µM
same,TGI,[52],> 100 µM
same,TGI,[53],> 100 µM
CC(C)OP(=O)(OC(C)C)c1nn(-c2ccc([N+](=O)[O-])cc2)c(=N)s1,TGI,[4],> 100 µM
same,TGI,[57],> 100 µM
same,TGI,[5],> 100 µM
same,TGI,[6],> 100 µM
same,TGI,[7],> 100 µM
same,TGI,[8],> 100 µM
same,TGI,[9],> 100 µM
same,TGI,[10],> 100 µM
same,TGI,[11],> 100 µM
same,TGI,[12],> 100 µM
same,TGI,[13],> 100 µM
same,TGI,[14],> 100 µM
same,TGI,[15],> 100 µM
same,TGI,[16],> 100 µM
same,TGI,[17],> 100 µM
same,TGI,[18],> 100 µM
same,TGI,[19],> 100 µM
same,TGI,[20],> 100 µM
same,TGI,[21],> 100 µM
same,TGI,[22],> 100 µM
same,TGI,[23],> 100 µM
same,TGI,[24],> 100 µM
same,TGI,[26],> 100 µM
same,TGI,[27],> 100 µM
same,TGI,[28],> 100 µM
same,TGI,[29],> 100 µM
same,TGI,[30],> 100 µM
same,TGI,[31],> 100 µM
same,TGI,[32],> 100 µM
same,TGI,[55],> 100 µM
same,TGI,[33],> 100 µM
same,TGI,[34],> 100 µM
same,TGI,[36],95.5 µM
same,TGI,[37],> 100 µM
same,TGI,[39],> 100 µM
same,TGI,[40],> 100 µM
same,TGI,[41],> 100 µM
same,TGI,[42],> 100 µM
same,TGI,[43],> 100 µM
same,TGI,[44],> 100 µM
same,TGI,[45],> 100 µM
same,TGI,[46],> 100 µM
same,TGI,[47],> 100 µM
same,TGI,[48],> 100 µM
same,TGI,[49],> 100 µM
same,TGI,[50],> 100 µM
same,TGI,[52],> 100 µM
same,TGI,[53],> 100 µM
